Patent US8153817B2, “Synthesis of methyl nonactate derivatives” (Ohio University, priority 2006, dated 2012)
≈ marks a conversion by molar mass, not a printed value. Read-outs that look alike come from different tables or passages of the source.

Tested on: B. subtilis
Test: MIC screen against B. subtilis
Format: cell-based
Details: Bacillus subtilis
Procedure: In comparison ampicillin, which is an antibiotic in wide therapeutic use, has an MIC of 100 μM in this screen.

[1] = Table 1, selected triazoloamides, B. subtilis, read-out: MIC

Row | Compound | MIC [1] | MIC (B. subtilis (gram positive), read-out: MIC against B. subtilis)
1 | C[C@H](C(=O)NCCc1ccccc1)[C@@H]1CC[C@H](C[C@@H](C)n2cc(-c3ccccc3)nn2)O1 | 250 µM (≈ 108 µg/mL) | 
2 | C[C@H](C(=O)Nc1ccccc1)[C@@H]1CC[C@H](C[C@@H](C)n2cc(CN3CCC(c4ccccc4)CC3)nn2)O1 | 500 µM (≈ 251 µg/mL) | 
3 | C[C@@H](C(=O)N(C)Cc1ccccc1)[C@H]1CC[C@@H](C[C@H](C)n2cc(CN3CCN(c4ccccc4)CC3)nn2)O1 | 1000 µM (≈ 531 µg/mL) | 
4 | COc1ccc(CNC(=O)[C@@H](C)[C@@H]2CC[C@H](C[C@@H](C)n3cc(CN4CCC(c5ccccc5)CC4)nn3)O2)cc1 | 1000 µM (≈ 546 µg/mL) | 
5 | COc1ccc(NC(=O)[C@@H](C)[C@@H]2CC[C@H](C[C@@H](C)n3cc(-c4ccccc4)nn3)O2)cc1 | 1000 µM (≈ 435 µg/mL) | 
6 | C[C@H](C(=O)NC1CCCC1)[C@@H]1CC[C@H](C[C@@H](C)n2cc(CN3CCN(c4ccccc4)CC3)nn2)O1 | 2000 µM (≈ 989 µg/mL) | 
7 | C[C@H](C(=O)N1CCOCC1)[C@@H]1CC[C@H](C[C@@H](C)n2cc(CN3CCN(c4ccccc4)CC3)nn2)O1 | 2000 µM (≈ 993 µg/mL) | 
8 | C[C@H](C(=O)NC1CCCCC1)[C@@H]1CC[C@H](C[C@@H](C)n2cc(CN3CCN(c4ccccc4)CC3)nn2)O1 | 2000 µM (≈ 1020 µg/mL) | 
9 | C[C@H](C(=O)N(C)C)[C@@H]1CC[C@H](C[C@@H](C)n2cc(-c3ccccc3)nn2)O1 | 4000 µM (≈ 1430 µg/mL) | 
10 | C[C@H](C(=O)N1CCN(c2ccccc2)CC1)[C@@H]1CC[C@H](C[C@@H](C)n2cc(CN3CCN(c4ccccc4)CC3)nn2)O1 | 4000 µM (≈ 2290 µg/mL) | 
11 | CC1(C)S[C@@H]2[C@H](NC(=O)[C@H](N)c3ccccc3)C(=O)N2[C@H]1C(=O)O [ampicillin, reference compound] |  | 100 µM (≈ 34.9 µg/mL)
